Source: ChEMBL document CHEMBL1144342, “Synthesis and structure-activity relationship of 4-substituted 2-(2-acetyloxyethyl)-8-(morpholine-4-sulfonyl)pyrrolo[3,4-c]quinoline-1,3-diones as potent caspase-3 inhibitors” (J Med Chem, 2005)

Target: T1, Caspase-3 (Homo sapiens, UniProt P42574)
T1 sequence (P42574 whole entry): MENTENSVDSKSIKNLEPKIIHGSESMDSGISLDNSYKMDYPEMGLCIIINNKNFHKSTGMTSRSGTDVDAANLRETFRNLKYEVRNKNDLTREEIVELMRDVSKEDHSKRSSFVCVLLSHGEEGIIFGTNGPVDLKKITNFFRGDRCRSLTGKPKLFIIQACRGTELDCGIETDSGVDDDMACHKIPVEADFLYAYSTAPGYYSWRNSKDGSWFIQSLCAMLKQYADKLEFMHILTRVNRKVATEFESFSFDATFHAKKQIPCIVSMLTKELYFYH
Test: In vitro inhibitory concentration against human caspase-3

SMILES	IC50 [nM]
CC(=O)OCCN1C(=O)c2c(Cl)nc3ccc(S(=O)(=O)N4CCOCC4)cc3c2C1=O	294
COC(=O)C[S+]([O-])c1nc2ccc(S(=O)(=O)N3CCOCC3)cc2c2c1C(=O)N(CCOC(C)=O)C2=O (configuration not stated)	352
CC(=O)OCCN1C(=O)c2c(c3cc(S(=O)(=O)N4CCOCC4)ccc3[nH]c2=O)C1=O	10900
CC(=O)OCCN1C(=O)c2c(Nc3ccc(F)c(Cl)c3)nc3ccc(S(=O)(=O)N4CCOCC4)cc3c2C1=O	27900
CC(=O)OCCN1C(=O)c2c(SC(=N)N)nc3ccc(S(=O)(=O)N4CCOCC4)cc3c2C1=O	255
CCOC(=O)C[C@@H](Nc1nc2ccc(S(=O)(=O)N3CCOCC3)cc2c2c1C(=O)N(CCOC(C)=O)C2=O)C(=O)OCC	5190
CC(=O)OCCN1C(=O)c2c(N3CCOCC3)nc3ccc(S(=O)(=O)N4CCOCC4)cc3c2C1=O	15400
COC(=O)CS(=O)(=O)c1nc2ccc(S(=O)(=O)N3CCOCC3)cc2c2c1C(=O)N(CCOC(C)=O)C2=O	362
COC(=O)CSc1nc2ccc(S(=O)(=O)N3CCOCC3)cc2c2c1C(=O)N(CCOC(C)=O)C2=O	1290

Stronger by IC50, values ahead:

IC50 [nM]	SMILES
27	CC(=O)OCCN1C(=O)c2c(-c3ccccc3)nc3ccc(S(=O)(=O)N4CCOCC4)cc3c2C1=O
33	CC(=O)OCCN1C(=O)c2c(/C=C/c3ccc(C(F)(F)F)cc3)nc3ccc(S(=O)(=O)N4CCOCC4)cc3c2C1=O
40	CC(=O)OCCN1C(=O)c2c(C(C)C)nc3ccc(S(=O)(=O)N4CCOCC4)cc3c2C1=O
36	CC(=O)OCCN1C(=O)c2c(-c3ccco3)nc3ccc(S(=O)(=O)N4CCOCC4)cc3c2C1=O
23	CC(=O)OCCN1C(=O)c2c(C)nc3ccc(S(=O)(=O)N4CCOCC4)cc3c2C1=O
58	CC(=O)OCCN1C(=O)c2c(-c3ccc(C(=O)N(C)C)cc3)nc3ccc(S(=O)(=O)N4CCOCC4)cc3c2C1=O
33	CC(=O)OCCN1C(=O)c2c(-c3ccc(F)c(Cl)c3)nc3ccc(S(=O)(=O)N4CCOCC4)cc3c2C1=O
33	CC(=O)OCCN1C(=O)c2c(-c3cccnc3)nc3ccc(S(=O)(=O)N4CCOCC4)cc3c2C1=O
